Test results: patent publication US20230285434A1 (priority 2020, published 2023)
Where “and” joins values, the source holds several entries; their conditions need not be identical. Identical values can stand only once. Counter-ions that a name gives are not always drawn.

Experiments:
[1] = test system: Lassa virus; experiment: microbe, parasite or virus in culture; assay type: cell-based
[2] = test system: Lassa virus; experiment: microbe, parasite or virus in culture; assay type: cell-based; conditions: Mammarenavirus lassaense, Vero C1008
[3] = Mammarenavirus lassaense, Huh-7

CN(C)CCOc1ccc(/C(=C(/CCCl)c2ccccc2)c2ccccc2)cc1 [Toremifene citrate, reference compound]
Inhibition ([1]; 0.4688 µM): 31.7829% and 32.93% and 31.98% and 27.3% and 32.75%
Inhibition ([1]; 0.9375 µM): 22.38% and 19.16% and 30.38% and 25.19% and 18.19%
Inhibition ([1]; 1.875 µM): 18.84% and 15.13% and 24.79% and 16.6% and 19.82%
Inhibition ([1]; 3.75 µM): 15.93% and 10.32% and 20.17% and 17.07% and 18.53%
inhibition at 0.4688 µM [1, 3]: 37.4%
inhibition at 0.9375 µM [1, 3]: 29.9%
inhibition at 1.875 µM [1, 3]: 20.9%
inhibition at 3.75 µM [1, 3]: 16.3%

Cl.NC(=O)c1cn([C@@H]2O[C@H](CO)[C@@H](O)[C@H]2O)c2ncnc(N)c12 [Oya2, 4-amino-7-((2R,3R,4S,5R)-3,4-dihydroxy-5-(hydroxymethyl)tetrahydrofuran-2-yl)-7H-pyrrolo[2,3-d]pyrimidine-5-carboxamide hydrochloride]
Inhibition ([1]; 0.0047 µM, hydrochloride): 28.74% and 26.14% and 27.5%
Inhibition ([1]; 0.0094 µM, hydrochloride): 21.1% and 20.68% and 22.57%

NC(=O)c1cn([C@@H]2O[C@H](CO)[C@@H](O)[C@H]2O)c2ncnc(N)c12 [Oya1, 4-amino-7-((2R,3R,4S,5R)-3,4-dihydroxy-5-(hydroxymethyl)tetrahydrofuran-2-yl)-7H-pyrrolo[2,3-d]pyrimidine-5-carboxamide]
inhibition at 0.075 µM [2]: 89.2%
inhibition at 0.15 µM [2]: 100%
inhibition at 0.3 µM [2]: 101%
inhibition at 0.6 µM [2]: 101%
Inhibition ([1]; 0.0047 µM): 33.96% and 28.083% and 24.36% and 25.62% and 25.65%
Inhibition ([1]; 0.0094 µM): 26.74% and 30.9% and 23.28% and 15.83% and 22.14% and 20.065%
inhibition at 0.0047 µM [1, 3]: 32.3%
inhibition at 0.15 µM [1, 3]: 79.9%
inhibition at 0.3 µM [1, 3]: 97.6%
inhibition at 0.6 µM [1, 3]: 98.8%
